Data on 28 molecules can be found in ChEMBL document CHEMBL3784979, “Design, synthesis and biological evaluation of novel benzimidazole-2-substituted phenyl or pyridine propyl ketene derivatives as antitumour agents” (Eur J Med Chem, 2016).

pIC50: −log10 of the molar value. Activity calls are given as the source filed them. The rule behind the calls is not given here.

The nature of series [1]: Antiproliferative activity against human HCT116 cells after 48 hrs by MTT assay. It is filed as functional, cell-based. Particulars: HCT-116, 48 h.
For the next series, the system named is HepG2. The experiment in a line: Antiproliferative activity against human HepG2 cells after 48 hrs by MTT assay. It is filed as functional, cell-based. Particulars: HepG2, 48 h. (In general: Tetrazolium dyes change colour on reduction, which living cells bring about.)
The next series deals with MCF7. The experiment in a line: Antiproliferative activity against human MCF7 cells after 48 hrs by MTT assay. Particulars: MCF7, 48 h. It is filed as functional, cell-based.
Series [2] is described as follows: Cell cycle arrest in human HCT116 cells assessed as accumulation at G1 phase after 72 hrs by propidium iodide staining based flow cytometry (reference value: 31.72 +/- 2.21%). Particulars: HCT-116. It is filed as functional. Background: In flow cytometry, cells or beads pass a laser one at a time.
The nature of series [3]: Cell cycle arrest in human HCT116 cells assessed as accumulation at G2 phase after 72 hrs by propidium iodide staining based flow cytometry (reference value: 27.73 +/- 3.56%). The class given is functional. Particulars: HCT-116.
Series [4] is described as follows: Cell cycle arrest in human HCT116 cells assessed as accumulation at S phase after 72 hrs by propidium iodide staining based flow cytometry (reference value: 40.55 +/- 1.36%). It is filed as functional. Particulars: HCT-116.
Series [5] is described as follows: Antiproliferative activity against p53 deficient human HCT116 cells after 48 hrs by MTT assay. The class given is functional, cell-based. Particulars: HCT-116, 48 h.
For series [6], the system named is HCT-116. Put plainly: Potency index, ratio of 5-fluorouracil IC50 to compound IC50 for human HCT116 cells. The class given is functional.
Series [7] in a line: Cell cycle arrest in human HCT116 cells assessed as accumulation at G2 phase at 0.06 uM after 72 hrs by propidium iodide staining based flow cytometry (reference value: 27.73 +/- 3.56%). It is filed as functional. Particulars: HCT-116.
A short description of series [8]: Cell cycle arrest in human HCT116 cells assessed as accumulation at S phase at 0.06 uM after 72 hrs by propidium iodide staining based flow cytometry (reference value: 40.55 +/- 1.36%). Particulars: HCT-116. The class given is functional.
The target of series [9] is T1, Tumour suppressor p53/oncoprotein Mdm2 (Homo sapiens) (UniProt P04637+Q00987). The experiment in a line: Inhibition of MDM2/P53 protein interaction in human HCT116 cells at 0.1 to 1 uM after 24 hrs by immunoprecipitation analysis. The class given is cell-based. Particulars: HCT-116.
Series [10] can be described thus: Toxicity in ip dosed BALB/c mouse by bliss test. It is filed as organism-based. Particulars: in vivo.
Series [11] relates to Mus musculus. Put plainly: Toxicity in BALB/c mouse assessed as change in body weight at 100 to 200 mg/kg, ip twice weekly for 4 weeks measured 24 hrs post last dose. It is filed as organism-based. Particulars: in vivo.
The test system of series [12] is HCT-116. Put plainly: Antitumor activity against human HCT116 cells xenografted in ip dosed BALB/c mouse assessed as tumor growth inhibition administered twice weekly for 4 weeks measured 24 hrs post last dose. It is filed as functional, organism-based. A general note: Xenograft models place foreign cells or tissue in a host animal.
The nature of series [13]: Cell cycle arrest in human HCT116 cells assessed as accumulation at G1 phase at 0.06 uM after 72 hrs by propidium iodide staining based flow cytometry (reference value: 31.72 +/- 2.21%). The class given is functional. The following applies: HCT-116.
In series [14] the test system is Mus musculus. Put plainly: Toxicity in BALB/c mouse assessed as reduction in body weight at 12.5 mg/kg, ip twice weekly for 4 weeks measured 24 hrs post last dose. The class given is organism-based. Particulars: in vivo.
A short description of series [15]: Antitumor activity against human HCT116 cells xenografted in BALB/c mouse assessed as tumor growth inhibition at 12.5 mg/kg, ip twice weekly for 4 weeks measured 24 hrs post last dose relative to control. Particulars: HCT-116, ip, read-out: TGI. The class given is functional.
Series [16] deals with T1, Tumour suppressor p53/oncoprotein Mdm2 (Homo sapiens). The experiment in a line: Inhibition of MDM2/P53 protein interaction in human HCT116 cells at 0.5 to 5 uM after 24 hrs by immunoprecipitation analysis. It is filed as cell-based. Particulars: HCT-116.
Series [17] can be described thus: Cell cycle arrest in human HCT116 cells assessed as accumulation at G1 phase at 0.58 uM after 72 hrs by propidium iodide staining based flow cytometry (reference value: 31.72 +/- 2.21%). Particulars: HCT-116. The class given is functional.
The nature of series [18]: Cell cycle arrest in human HCT116 cells assessed as accumulation at G2 phase at 0.58 uM after 72 hrs by propidium iodide staining based flow cytometry (reference value: 27.73 +/- 3.56%). It is filed as functional. The following applies: HCT-116.
The nature of series [19]: Cell cycle arrest in human HCT116 cells assessed as accumulation at S phase at 0.58 uM after 72 hrs by propidium iodide staining based flow cytometry (reference value: 40.55 +/- 1.36%). It is filed as functional. The following applies: HCT-116.
A short description of series [20]: Cell cycle arrest in human HCT116 cells assessed as accumulation at S phase at 0.04 uM after 72 hrs by propidium iodide staining based flow cytometry (reference value: 40.55 +/- 1.36%). It is filed as functional. The following applies: HCT-116.
Series [21] is described as follows: Cell cycle arrest in human HCT116 cells assessed as accumulation at G1 phase at 0.04 uM after 72 hrs by propidium iodide staining based flow cytometry (reference value: 31.72 +/- 2.21%). The class given is functional. The following applies: HCT-116.
Series [22] can be described thus: Antitumor activity against human HCT116 cells xenografted in BALB/c mouse assessed as tumor growth inhibition at 200 mg/kg, ip twice weekly for 4 weeks measured 24 hrs post last dose relative to control. It is filed as functional. Particulars: HCT-116, ip, read-out: TGI.
A short description of series [23]: Cell cycle arrest in human HCT116 cells assessed as accumulation at G2 phase at 0.04 uM after 72 hrs by propidium iodide staining based flow cytometry (reference value: 27.73 +/- 3.56%). It is filed as functional. The following applies: HCT-116.

T1 sequence (P04637 whole entry, looked up): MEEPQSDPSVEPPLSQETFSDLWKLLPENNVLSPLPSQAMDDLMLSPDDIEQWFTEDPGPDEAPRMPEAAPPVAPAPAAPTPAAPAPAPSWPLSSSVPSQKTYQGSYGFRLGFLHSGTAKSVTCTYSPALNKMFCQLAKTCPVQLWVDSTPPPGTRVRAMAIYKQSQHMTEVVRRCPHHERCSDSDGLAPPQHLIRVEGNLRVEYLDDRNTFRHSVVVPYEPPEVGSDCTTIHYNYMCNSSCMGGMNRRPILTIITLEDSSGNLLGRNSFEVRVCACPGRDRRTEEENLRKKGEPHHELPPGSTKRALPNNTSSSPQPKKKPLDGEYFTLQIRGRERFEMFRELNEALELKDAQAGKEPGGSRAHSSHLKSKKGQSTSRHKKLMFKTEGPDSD
T1 sequence (Q00987 whole entry, looked up): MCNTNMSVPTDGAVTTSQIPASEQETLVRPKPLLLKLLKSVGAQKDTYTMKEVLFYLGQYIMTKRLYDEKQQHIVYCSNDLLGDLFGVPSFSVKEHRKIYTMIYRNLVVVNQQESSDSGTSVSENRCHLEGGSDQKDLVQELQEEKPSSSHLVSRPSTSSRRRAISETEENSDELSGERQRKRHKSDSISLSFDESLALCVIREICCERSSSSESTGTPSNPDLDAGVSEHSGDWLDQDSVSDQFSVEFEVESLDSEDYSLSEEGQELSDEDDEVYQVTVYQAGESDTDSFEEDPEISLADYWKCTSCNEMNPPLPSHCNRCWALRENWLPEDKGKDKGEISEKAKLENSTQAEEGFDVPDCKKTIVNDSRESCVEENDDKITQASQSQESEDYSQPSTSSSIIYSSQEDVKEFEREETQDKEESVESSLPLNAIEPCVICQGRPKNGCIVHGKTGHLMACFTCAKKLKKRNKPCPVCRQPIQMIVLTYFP

What is called pIC50 is the negative decadic logarithm of the IC50, by convention in mol/L. High values mean a small IC50, low ones a large IC50. Regarding `O=C(CCc1cccc(Cl)c1)c1nc2ccccc2[nH]1`, the pIC50 (in series [1]; with HepG2; in the series with MCF7) was less than 4.00 each time.

As for `COc1ccc(/C=C/C(=O)c2nc3ccccc3[nH]2)cc1`, the pIC50 is 4.88 in series [1], 5.13 in the series with HepG2 and less than 4.00 in the series with MCF7.

Regarding `O=C(/C=C/c1ccc(Cl)cc1)c1nc2ccccc2[nH]1`, the pIC50 in series [1] is 5.17; in the series on HepG2, 4.90; in the series on MCF7 it was 4.61.

With `COc1ccccc1/C=C/C(=O)c1nc2ccccc2[nH]1`, the pIC50 in series [1] is 5.32; in the series with HepG2, 5.10; in the series on MCF7, 4.38.

As to `CC(=O)O[C@H]1C(=O)[C@@]2(C)[C@H]([C@H](OC(=O)c3ccccc3)[C@]3(O)C[C@H](OC(=O)[C@H](O)[C@@H](NC(=O)c4ccccc4)c4ccccc4)C(C)=C1C3(C)C)[C@]1(OC(C)=O)CO[C@@H]1C[C@@H]2O` [PACLITAXEL], the pIC50 in series [1] was 7.17; in the series on HepG2, 7.66.

Turning to `OC(/C=C/c1cccc(Cl)c1)c1nc2ccccc2[nH]1` (stereo not drawn), the pIC50 (in series [1]; in the series with HepG2; in the series with MCF7) was less than 4.00 throughout.

For `COc1ccc(C2=N[C@H](c3ccc(Cl)cc3)[C@H](c3ccc(Cl)cc3)N2C(=O)N2CCNC(=O)C2)c(OC(C)C)c1`, the Activity in series [2] came to 62.5%; in series [3], 12.7%; in series [4], 24.8%.

Take `O=C(/C=C/c1ccccc1Br)c1nc2ccccc2[nH]1`: the pIC50 was 4.79 in series [1], 4.54 in the series on HepG2 and 4.29 with MCF7.

Regarding `O=c1[nH]cc(F)c(=O)[nH]1` [FLUOROURACIL], the pIC50 is 4.24 in [1], 3.76 in the series with HepG2 and 3.65 with MCF7.

With `Cc1ccccc1/C=C/C(=O)c1nc2ccccc2[nH]1`, the pIC50 in [1] was 6.07; in the series on HepG2 it was 5.17; with MCF7, 4.20; in series [5], 5.36.

As for `O=C(/C=C/c1cccc(Cl)c1)c1nc2ccccc2o1`, the pIC50 (in series [1]; in the series on HepG2; in the series on MCF7) was less than 4.00 each time.

`O=C(CCc1ccccn1)c1nc2ccccc2[nH]1`: the pIC50 (in series [1]; in the series with HepG2; in the series with MCF7) was less than 4.00 throughout.

As for `COc1cccc(/C=C/C(=O)c2nc3ccccc3s2)c1`, the pIC50 (in series [1]; with HepG2; in the series with MCF7) was less than 4.00 throughout.

With `O=C(/C=C/c1ccc(Br)cc1)c1nc2ccccc2[nH]1`, the pIC50 in [1] was 4.71; with HepG2, 4.96; in the series with MCF7, 4.28.

With `O=C(/C=C/c1ccccn1)c1nc2ccccc2o1`, the pIC50 (in series [1]; in the series with HepG2; with MCF7) was less than 4.00 in each case.

As for `O=C(/C=C/c1ccccc1)c1nc2ccccc2[nH]1`, the pIC50 in series [1] is 6.70; with HepG2, 5.20; in the series with MCF7, 4.40; in series [5], 5.68.

The term LD50 denotes the dose expected to kill half of the subjects tested. A higher LD50 goes with a less toxic substance. Turning to `O=C(/C=C/c1ccccn1)c1nc2ccccc2[nH]1`, the “Ratio IC50” value with HCT-116 [6] is 950. Further, the Activity was 16.6% in series [7], 18.9% in series [8], “Non-toxic” in the series on Mus musculus [11] and 64.5% in series [13]. In addition, the inhibition entry in series [9] was “Active”. This molecule also gave an LD50 in [10] of 634 mg/kg. Further, the pIC50 in series [1] is 7.22; with HepG2, 6.47; with MCF7 it was 5.44; in [5] it was 5.84. In the series with HCT-116 [12], the TGI entry was “Dose-dependent effect”.

Regarding `O=C(/C=C/c1ccncc1)c1nc2ccccc2[nH]1`, the pIC50 was 6.15 in series [1], 5.16 in the series on HepG2, 4.68 in the series with MCF7 and 5.25 in series [5].

For `CCc1c2c(nc3ccc(OC(=O)N4CCC(N5CCCCC5)CC4)cc13)-c1cc3c(c(=O)n1C2)COC(=O)[C@]3(O)CC` [IRINOTECAN], the Activity in the series on Mus musculus [14] was 3.66 g. Besides, in series [15], the inhibition in vivo at 12.5 mg/kg was 70.2%.

On to `OC(/C=C/c1ccccn1)c1nc2ccccc2[nH]1` (stereo not drawn), for which the negative-log IC50 (pIC50) in [1] was less than 4.00; in the series with HepG2, less than 4.30; in the series on MCF7, less than 4.00.

As to `O=C(/C=C/c1cccc(Br)c1)c1nc2ccccc2[nH]1`, the pIC50 in series [1] is 6.10; with HepG2, 5.80; in the series on MCF7, 4.71; in [5], 5.53.

For `O=C(/C=C/c1cccc(Cl)c1)c1nc2ccccc2s1`, the pIC50 (in series [1]; in the series with HepG2; in the series on MCF7) was less than 4.00 in each case.

Turning to `COc1cccc(/C=C/C(O)c2nc3ccccc3[nH]2)c1` (stereo not drawn), the pIC50 (in [1]; in the series with HepG2; with MCF7) was less than 4.00 in each case.

For `O=C(/C=C/c1ccccn1)c1nc2ccccc2s1`, the pIC50 (in series [1]; in the series with HepG2; with MCF7) was less than 4.00 in each case.

As to `COc1cccc(/C=C/C(=O)c2nc3ccccc3[nH]2)c1`, the inhibition entry in [16] is “Active”. The Activity in series [17] was 60.5%; in series [18], 20.5%; with Mus musculus [11], “Non-toxic”; in [19], 19%. For the same molecule, the LD50 in [10] is 1220 mg/kg. The pIC50 is 6.24 in series [1], 5.25 in the series on HepG2, 4.66 with MCF7 and 5.32 in series [5]. Besides, the TGI entry with HCT-116 [12] was “Dose-dependent effect”.

`COc1cccc(/C=C/C(=O)c2nc3ccccc3o2)c1`: the pIC50 (in [1]; with HepG2; with MCF7) was less than 4.00 each time.

With `O=C(/C=C/c1cccnc1)c1nc2ccccc2[nH]1`, the pIC50 in series [1] was 4.81; in the series with HepG2, 5.07; in the series with MCF7, 4.66.

With `O=C(/C=C/c1cccc(Cl)c1)c1nc2ccccc2[nH]1`, the Activity is 17.2% in [20], 65% in series [21], “Non-toxic” in the series with Mus musculus [11] and 17.8% in series [23]. The “Ratio IC50” value in the series on HCT-116 [6] turned out to be 950. In series [9], the inhibition entry is “Active”. For the same molecule, the LD50 in series [10] is 692 mg/kg. Besides, the pIC50 in series [1] is 7.52; with HepG2, 6.12; in the series on MCF7, 5.01; in [5] it was 5.71. For the same molecule, in series [22], the inhibition in vivo at 200 mg/kg stood at 74.6%. Besides, the TGI result in the series on HCT-116 [12] was “Dose-dependent effect”.
